Results reported in PubChem BioAssay (NCI).
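Cells were grown in 96-well plates and exposed to each compound for 48 hours at five concentrations; endpoints were interpolated linearly between bracketing concentrations, or set to the highest concentration if not reached. TGI marks complete inhibition of growth.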

Columns and labels:
Assay in all cases: growth of human tumour cells (NCI), 48 h
SNB-19 CNS = test system: SNB-19 CNS
IGROV1 ovarian = test system: IGROV1 ovarian
SN12C renal = test system: SN12C renal
HCT-116 colon = test system: HCT-116 colon
PC-3 prostate = test system: PC-3 prostate
CAKI-1 renal = test system: CAKI-1 renal
A498 renal = test system: A498 renal
HCT-15 colon = test system: HCT-15 colon
MOLT-4 leukemia = test system: MOLT-4 leukemia
SF-295 CNS = test system: SF-295 CNS
SK-MEL-2 melanoma = test system: SK-MEL-2 melanoma
COLO 205 colon = test system: COLO 205 colon
LOX IMVI melanoma = test system: LOX IMVI melanoma
HCC-2998 colon = test system: HCC-2998 colon
SNB-75 CNS = test system: SNB-75 CNS
MDA-MB-231 breast = test system: MDA-MB-231 breast
T-47D breast = test system: T-47D breast
DU-145 prostate = test system: DU-145 prostate
NCI-H23 lung = test system: NCI-H23 lung
OVCAR-3 ovarian = test system: OVCAR-3 ovarian
OVCAR-5 ovarian = test system: OVCAR-5 ovarian
M14 melanoma = test system: M14 melanoma
A549 NSCLC = test system: A549 NSCLC
TK-10 renal = test system: TK-10 renal
RXF 393 renal = test system: RXF 393 renal
786-0 renal = test system: 786-0 renal
MCF7 breast = test system: MCF7 breast
HS 578T breast = test system: HS 578T breast
MDA-N = test system: MDA-N
U251 CNS = test system: U251 CNS
ACHN renal = test system: ACHN renal
NCI-H460 lung = test system: NCI-H460 lung
SF-539 CNS = test system: SF-539 CNS
CCRF-CEM leukemia = test system: CCRF-CEM leukemia
SK-OV-3 ovarian = test system: SK-OV-3 ovarian
SF-268 CNS = test system: SF-268 CNS
NCI/ADR-RES ovarian = test system: NCI/ADR-RES ovarian
KM12 colon = test system: KM12 colon
UACC-257 melanoma = test system: UACC-257 melanoma
UO-31 renal = test system: UO-31 renal
HOP-92 NSCLC = test system: HOP-92 NSCLC
SW-620 colon = test system: SW-620 colon
HOP-62 NSCLC = test system: HOP-62 NSCLC
RPMI-8226 leukemia = test system: RPMI-8226 leukemia
K-562 leukemia = test system: K-562 leukemia
MALME-3M melanoma = test system: MALME-3M melanoma
EKVX NSCLC = test system: EKVX NSCLC
BT-549 breast = test system: BT-549 breast
HT29 colon = test system: HT29 colon
NCI-H522 lung = test system: NCI-H522 lung
NCI-H226 lung = test system: NCI-H226 lung
SK-MEL-5 melanoma = test system: SK-MEL-5 melanoma
SK-MEL-28 melanoma = test system: SK-MEL-28 melanoma
UACC-62 melanoma = test system: UACC-62 melanoma
MDA-MB-435 = test system: MDA-MB-435
OVCAR-8 ovarian = test system: OVCAR-8 ovarian

Compound: CC(=O)OCC1OC(N2C(c3ccccc3)=CC(c3cccs3)C(C#N)=C2S)C(OC(C)=O)C(OC(C)=O)C1OC(C)=O (stereo unspecified)
- TGI (SNB-19 CNS): > 100 µM
- TGI (IGROV1 ovarian): > 100 µM
- TGI (SN12C renal): > 100 µM
- TGI (HCT-116 colon): > 100 µM
- TGI (PC-3 prostate): > 100 µM
- TGI (CAKI-1 renal): > 100 µM
- TGI (A498 renal): 42.9 µM
- TGI (HCT-15 colon): > 100 µM
- TGI (MOLT-4 leukemia): > 100 µM
- TGI (SF-295 CNS): > 100 µM
- TGI (SK-MEL-2 melanoma): > 100 µM
- TGI (COLO 205 colon): > 100 µM
- TGI (LOX IMVI melanoma): > 100 µM
- TGI (HCC-2998 colon): > 100 µM
- TGI (SNB-75 CNS): > 100 µM
- TGI (MDA-MB-231 breast): > 100 µM
- TGI (T-47D breast): > 100 µM
- TGI (DU-145 prostate): > 100 µM
- TGI (NCI-H23 lung): > 100 µM
- TGI (OVCAR-3 ovarian): > 100 µM
- TGI (OVCAR-5 ovarian): > 100 µM
- TGI (M14 melanoma): > 100 µM
- TGI (A549 NSCLC): > 100 µM
- TGI (TK-10 renal): > 100 µM
- TGI (RXF 393 renal): > 100 µM
- TGI (786-0 renal): > 100 µM
- TGI (MCF7 breast): > 100 µM
- TGI (HS 578T breast): > 100 µM
- TGI (MDA-N): > 100 µM
- TGI (U251 CNS): > 100 µM
- TGI (ACHN renal): > 100 µM
- TGI (NCI-H460 lung): > 100 µM
- TGI (SF-539 CNS): > 100 µM
- TGI (CCRF-CEM leukemia): > 100 µM
- TGI (SK-OV-3 ovarian): > 100 µM
- TGI (SF-268 CNS): > 100 µM
- TGI (NCI/ADR-RES ovarian): > 100 µM
- TGI (KM12 colon): > 100 µM
- TGI (UACC-257 melanoma): > 100 µM
- TGI (UO-31 renal): > 100 µM

Compound: C=C(C)C1CCC(C(=O)O)CC1 (stereo unspecified)
- TGI (SNB-19 CNS): > 100 µM
- TGI (IGROV1 ovarian): > 100 µM
- TGI (SN12C renal): > 100 µM
- TGI (HCT-116 colon): > 100 µM
- TGI (PC-3 prostate): > 100 µM
- TGI (CAKI-1 renal): > 100 µM
- TGI (A498 renal): > 100 µM
- TGI (HOP-92 NSCLC): > 100 µM
- TGI (HCT-15 colon): > 100 µM
- TGI (MOLT-4 leukemia): > 100 µM
- TGI (SF-295 CNS): > 100 µM
- TGI (SK-MEL-2 melanoma): > 100 µM
- TGI (SW-620 colon): > 100 µM
- TGI (HOP-62 NSCLC): > 100 µM
- TGI (COLO 205 colon): > 100 µM
- TGI (LOX IMVI melanoma): > 100 µM
- TGI (HCC-2998 colon): > 100 µM
- TGI (RPMI-8226 leukemia): > 100 µM
- TGI (K-562 leukemia): > 100 µM
- TGI (SNB-75 CNS): > 100 µM
- TGI (MDA-MB-231 breast): > 100 µM
- TGI (T-47D breast): > 100 µM
- TGI (DU-145 prostate): > 100 µM
- TGI (MALME-3M melanoma): > 100 µM
- TGI (NCI-H23 lung): > 100 µM
- TGI (OVCAR-3 ovarian): > 100 µM
- TGI (OVCAR-5 ovarian): > 100 µM
- TGI (EKVX NSCLC): > 100 µM
- TGI (M14 melanoma): > 100 µM
- TGI (A549 NSCLC): > 100 µM
- TGI (TK-10 renal): > 100 µM
- TGI (RXF 393 renal): > 100 µM
- TGI (BT-549 breast): > 100 µM
- TGI (786-0 renal): > 100 µM
- TGI (MCF7 breast): > 100 µM
- TGI (HT29 colon): > 100 µM
- TGI (NCI-H522 lung): > 100 µM
- TGI (NCI-H226 lung): > 100 µM
- TGI (HS 578T breast): > 100 µM
- TGI (MDA-N): > 100 µM
- TGI (U251 CNS): > 100 µM
- TGI (ACHN renal): > 100 µM
- TGI (SK-MEL-5 melanoma): > 100 µM
- TGI (NCI-H460 lung): > 100 µM
- TGI (SF-539 CNS): > 100 µM
- TGI (SK-MEL-28 melanoma): > 100 µM
- TGI (CCRF-CEM leukemia): > 100 µM
- TGI (SK-OV-3 ovarian): > 100 µM
- TGI (SF-268 CNS): > 100 µM
- TGI (UACC-62 melanoma): > 100 µM
- TGI (KM12 colon): > 100 µM
- TGI (UACC-257 melanoma): > 100 µM
- TGI (MDA-MB-435): > 100 µM
- TGI (UO-31 renal): > 100 µM
- TGI (OVCAR-8 ovarian): > 100 µM

Compound: CC12C=CC(C)(C3C(=O)C4C(C(=O)C31)C1(C)C=CC4(C)S1=O)S2=O (stereo unspecified)
- TGI (SNB-19 CNS): > 100 µM
- TGI (IGROV1 ovarian): > 100 µM
- TGI (PC-3 prostate): > 100 µM
- TGI (CAKI-1 renal): > 100 µM
- TGI (HCT-15 colon): > 100 µM
- TGI (SF-295 CNS): > 100 µM
- TGI (HOP-62 NSCLC): > 100 µM
- TGI (COLO 205 colon): > 100 µM
- TGI (LOX IMVI melanoma): > 100 µM
- TGI (HCC-2998 colon): > 100 µM
- TGI (SNB-75 CNS): > 100 µM
- TGI (MDA-MB-231 breast): > 100 µM
- TGI (DU-145 prostate): > 100 µM
- TGI (MALME-3M melanoma): > 100 µM
- TGI (NCI-H23 lung): > 100 µM
- TGI (OVCAR-3 ovarian): > 100 µM
- TGI (OVCAR-5 ovarian): > 100 µM
- TGI (EKVX NSCLC): > 100 µM
- TGI (M14 melanoma): > 100 µM
- TGI (A549 NSCLC): > 100 µM
- TGI (TK-10 renal): > 100 µM
- TGI (RXF 393 renal): > 100 µM
- TGI (BT-549 breast): > 100 µM
- TGI (786-0 renal): > 100 µM
- TGI (HT29 colon): > 100 µM
- TGI (NCI-H522 lung): > 100 µM
- TGI (NCI-H226 lung): > 100 µM
- TGI (HS 578T breast): > 100 µM
- TGI (MDA-N): > 100 µM
- TGI (ACHN renal): > 100 µM
- TGI (SK-MEL-5 melanoma): > 100 µM
- TGI (NCI-H460 lung): > 100 µM
- TGI (SF-539 CNS): > 100 µM
- TGI (SK-OV-3 ovarian): > 100 µM
- TGI (SF-268 CNS): > 100 µM
- TGI (UACC-62 melanoma): > 100 µM
- TGI (NCI/ADR-RES ovarian): > 100 µM
- TGI (KM12 colon): > 100 µM
- TGI (UACC-257 melanoma): > 100 µM
- TGI (UO-31 renal): > 100 µM
- TGI (OVCAR-8 ovarian): > 100 µM
